In patent publication US4345938A, “Herbicidal 2-haloacetanilides” (Monsanto Company, priority 1980, dated 1982):
Like-named read-outs stand apart in the source and are kept apart here.

Assays:
Type in all cases: in vivo
Echinochloa crus-galli [1] = assay: Greenhouse transplant rice test, EC; conditions: about 3 WAT, read-out: Percent Inhibition, EC
Excerpt: (§1) The test procedure used in this greenhouse test is as follows: Ray silt loam top soil containing about 0.05% by weight of krillium and sifted through a […] screen is fumigated about 5-10 days prior to use. Pots are then filled with said Ray silt loam soil to a level to allow for a 1 in. (2.54 cm) flooding depth. Rice plants (Bluebelle) of 2 to 3 weeks age are transplanted to the pots and bulbs or seeds of the test weeds also planted in the pots. The pots are then flooded and the test chemical applied to the surface of the flood water. The flood water is reduced to allow for germination of the Echinochloa crus-galli (barnyardgrass) seed and subsequently reflooded and maintained in that condition. Observations of percent inhibition using a scale of 0-100% are made about 3 weeks after transplant (WAT).
(§2) The test data in Table III for all compounds was obtained under identical test conditions. The weeds used in the tests herein have the following abbreviations in the tables: Echinochloa crus-galli (EC), Monochloria vaginalis (MV), Cyperus Serotinus (CS), Eleocharis Kuroguwai (EK) and Sagittaria trifolia (ST).

Echinochloa crus-galli [2] = assay: Field transplant rice test, applied 9 DAT, EC; conditions: Echinochloa crus-galli, 216 h, read-out: Percent Inhibition, EC; for inhibition at 375 g/ha: 0.375 Kg/Ha; for inhibition at 750 g/ha: 0.75 Kg/Ha; for inhibition at 1500 g/ha: 1.5 Kg/Ha; for inhibition at 3000 g/ha: 3.0 Kg/Ha
Summary of the method: (§3)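 Field test in transplanted rice, herbicides applied as granules (2.5% or 5.0% w/w active) 9 days after transplant at 3.0 down to 0.375 kg/ha. Weed control observed weekly from 3 to 7 weeks after transplant.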

Eleocharis kuroguwai = assay: Greenhouse transplant rice test, EK; conditions: about 3 WAT, read-out: Percent Inhibition, EK
Excerpt: as §1, §2

Monochoria vaginalis = assay: Field transplant rice test, applied 9 DAT, MV; conditions: for inhibition at 375 g/ha / inhibition at 750 g/ha / inhibition at 1500 g/ha / inhibition at 3000 g/ha: Pontederia vaginalis, 216 h, read-out: Percent Inhibition, MV; for inhibition at 375 g/ha: 0.375 Kg/Ha; for inhibition at 750 g/ha: 0.75 Kg/Ha; for inhibition at 1500 g/ha: 1.5 Kg/Ha; for inhibition at 3000 g/ha: 3.0 Kg/Ha
Summary of the method: as §3

Echinochloa crus-galli [3] = assay: Field transplant rice test, applied 0 DAT, EC; conditions: 0 h, read-out: Percent Inhibition, EC; for inhibition at 375 g/ha: 0.375 Kg/Ha; for inhibition at 750 g/ha: 0.75 Kg/Ha; for inhibition at 1500 g/ha: 1.5 Kg/Ha; for inhibition at 3000 g/ha: 3.0 Kg/Ha
Summary of the method: (§4)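 Field test in transplanted rice, herbicide applied as granules (2.5% or 5.0% w/w active) at transplanting (0 DAT). Rates from 3.0 kg/ha down to 0.375 kg/ha. Weed control observed weekly from 2 to 6 weeks after transplant, reported at 2, 4 and 6 WAT.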

Sagittaria trifolia = assay: Field transplant rice test, applied 0 DAT, ST; conditions: 0 h, read-out: Percent Inhibition, ST; for inhibition at 375 g/ha: 0.375 Kg/Ha; for inhibition at 750 g/ha: 0.75 Kg/Ha; for inhibition at 1500 g/ha: 1.5 Kg/Ha; for inhibition at 3000 g/ha: 3.0 Kg/Ha
Summary of the method: as §4

Rice = assay: Field transplant rice test, applied 9 DAT, rice injury; conditions: for inhibition at 375 g/ha / inhibition at 750 g/ha / inhibition at 1500 g/ha / inhibition at 3000 g/ha: Oryza sativa, 216 h, read-out: Percent Inhibition, Rice; for inhibition at 375 g/ha: 0.375 Kg/Ha; for inhibition at 750 g/ha: 0.75 Kg/Ha; for inhibition at 1500 g/ha: 1.5 Kg/Ha; for inhibition at 3000 g/ha: 3.0 Kg/Ha
Summary of the method: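 Field transplant rice; herbicides applied as granules (2.5% by weight active, 5.0% for one prior-art comparator) at 9 days after transplant. Rates from 3.0 kg/ha (2.67 lb/A) down to 0.375 kg/ha (0.34 lb/A). Crop injury observed weekly from 3 to 7 weeks after transplant.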

## CCCCOc1cccc(CC)c1N(C)C(=O)CCl [Example 1, N-methyl-2'-n-butoxy-6'-ethyl-2-chloroacetanilide]
Echinochloa crus-galli [1]; 0.28 Kg/Ha
  inhibition at 280 g/ha: 100%
Echinochloa crus-galli [1]; 0.56 Kg/Ha
  inhibition at 560 g/ha: 100%
Echinochloa crus-galli [1]; 1.12 Kg/Ha
  inhibition at 1120 g/ha: 100%
Echinochloa crus-galli [1]; 2.24 Kg/Ha
  inhibition at 2240 g/ha: 100%
Echinochloa crus-galli [2]; 3 WAT
  inhibition at 375 g/ha: 90%
  inhibition at 750 g/ha: 100%
  inhibition at 1500 g/ha: 100%
  inhibition at 3000 g/ha: 100%
Echinochloa crus-galli [2]; 5 WAT
  inhibition at 375 g/ha: 88%
  inhibition at 750 g/ha: 100%
  inhibition at 1500 g/ha: 98%
  inhibition at 3000 g/ha: 100%
Echinochloa crus-galli [2]; 7 WAT
  inhibition at 375 g/ha: 78%
  inhibition at 750 g/ha: 100%
  inhibition at 1500 g/ha: 100%
  inhibition at 3000 g/ha: 100%
Eleocharis kuroguwai; 0.28 Kg/Ha
  inhibition at 280 g/ha: 100%
Eleocharis kuroguwai; 0.56 Kg/Ha
  inhibition at 560 g/ha: 100%
Eleocharis kuroguwai; 1.12 Kg/Ha
  inhibition at 1120 g/ha: 100%
Eleocharis kuroguwai; 2.24 Kg/Ha
  inhibition at 2240 g/ha: 100%
Monochoria vaginalis; 3 WAT
  inhibition at 375 g/ha: 100%
  inhibition at 750 g/ha: 100%
  inhibition at 1500 g/ha: 100%
  inhibition at 3000 g/ha: 100%
Monochoria vaginalis; 5 WAT
  inhibition at 375 g/ha: 100%
  inhibition at 750 g/ha: 100%
  inhibition at 1500 g/ha: 100%
  inhibition at 3000 g/ha: 100%
Monochoria vaginalis; 7 WAT
  inhibition at 375 g/ha: 100%
  inhibition at 750 g/ha: 100%
  inhibition at 1500 g/ha: 100%
  inhibition at 3000 g/ha: 100%
Monochoria vaginalis; between 3 WAT and 7 WAT
  selectivity factor (GR15/GR85), MV in transplant rice: 16
Echinochloa crus-galli [3]; 2 WAT
  inhibition at 375 g/ha: 97%
  inhibition at 750 g/ha: 98%
  inhibition at 1500 g/ha: 100%
  inhibition at 3000 g/ha: 98%
Echinochloa crus-galli [3]; 4 WAT
  inhibition at 375 g/ha: 100%
  inhibition at 750 g/ha: 100%
  inhibition at 1500 g/ha: 100%
  inhibition at 3000 g/ha: 100%
Echinochloa crus-galli [3]; 6 WAT
  inhibition at 375 g/ha: 100%
  inhibition at 750 g/ha: 98%
  inhibition at 1500 g/ha: 100%
  inhibition at 3000 g/ha: 100%
Sagittaria trifolia; 2 WAT
  inhibition at 375 g/ha: 42%
  inhibition at 750 g/ha: 43%
  inhibition at 1500 g/ha: 30%
  inhibition at 3000 g/ha: 47%
Sagittaria trifolia; 4 WAT
  inhibition at 375 g/ha: 8%
  inhibition at 750 g/ha: 12%
  inhibition at 1500 g/ha: 8%
  inhibition at 3000 g/ha: 22%
Sagittaria trifolia; 6 WAT
  inhibition at 375 g/ha: 5%
  inhibition at 750 g/ha: 8%
  inhibition at 1500 g/ha: 5%
  inhibition at 3000 g/ha: 18%
Rice; 3 WAT
  inhibition at 375 g/ha: 13%
  inhibition at 750 g/ha: 7%
  inhibition at 1500 g/ha: 10%
  inhibition at 3000 g/ha: 15%
Rice; 5 WAT
  inhibition at 375 g/ha: 7%
  inhibition at 750 g/ha: 2%
  inhibition at 1500 g/ha: 7%
  inhibition at 3000 g/ha: 15%
Rice; 7 WAT
  inhibition at 375 g/ha: 7%
  inhibition at 750 g/ha: 0%
  inhibition at 1500 g/ha: 5%
  inhibition at 3000 g/ha: 10%
Rice; maximum test rate
  rate at which safety in rice is maintained: ≥ 3.0 kg/ha
